Ki and melting point data for five molecules are collected here from patent US20080139608A1, “2,6,8, Trisubstituted 1-deazapurines and their different uses” (Universiteit Leiden, priority 2006, published 2008).

Each structure is given as a SMILES string.

Data set [1] deals with T1, human adenosine A1 receptor (Homo sapiens, UniProt P30542).
T1 construct: expressed in transfected cells; host or cells: CHO cells
T1 sequence (P30542 1-326): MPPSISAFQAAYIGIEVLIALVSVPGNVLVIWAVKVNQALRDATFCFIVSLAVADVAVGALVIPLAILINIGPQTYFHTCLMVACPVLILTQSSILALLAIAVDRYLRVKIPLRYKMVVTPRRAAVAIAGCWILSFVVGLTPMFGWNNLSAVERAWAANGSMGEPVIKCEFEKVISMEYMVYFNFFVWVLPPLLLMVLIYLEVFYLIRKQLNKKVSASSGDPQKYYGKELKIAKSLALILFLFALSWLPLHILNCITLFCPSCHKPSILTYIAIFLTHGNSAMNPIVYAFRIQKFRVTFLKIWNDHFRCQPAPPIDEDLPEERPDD
In words: Radioligand binding assay, displacement of specific [3H]DPCPX binding. The note with it: CHO cells expressing human adenosine A1 receptors; n = 3; read-out: A1 Ki ± SEM, displacement of specific [3H]DPCPX binding. As to the method:
Radioligand Binding Studies [^3H]DPCPX was purchased from Amersham. All compounds made were tested in radioligand binding assays to determine their affinities at the human adenosine A1 receptor. The affinities at the A1 receptors were determined on CHO cells expressing the human receptors, using [^3H]DPCPX as the radioligand according to a previously described method.^11
Data Analysis Competition binding data were fit to a single-site binding model and plotted using the software package Prism (Graph Pad, San Diego, Calif., USA). The Cheng-Prusoff equation Ki=IC50/(1+[I]/Kd) was used to calculate Ki values, where Ki is the affinity constant for the competing ligand, [I] is the concentration of the free radioligand, and Kd is the affinity constant for the radioligand.

For the molecule `CCCc1nc2c(-c3ccccc3)cc(-c3ccccc3)nc2[nH]1` [Compound 6, 2,6-Diphenyl-8-propyl-1-deazapurine], the Ki in data set [1] came to 2.45 ± 0.23 nM.

Consider `CC(C)c1nc2nc(-c3ccccc3)cc(-c3ccccc3)c2[nH]1` [Compound 7, 2,6-Diphenyl-8-isopropyl-1-deazapurine], for which the Ki in data set [1] turned out to be 0.61 ± 0.04 nM.

Regarding `CC(C)CCc1nc2nc(-c3ccccc3)cc(-c3ccccc3)c2[nH]1` [Compound 9, 2,6-Diphenyl-8-isopentyl-1-deazapurine], the melting point lay within 196 to 197 °C.

On to `c1ccc(-c2cc(-c3ccccc3)c3[nH]c(C4CCCC4)nc3n2)cc1` [Compound 11, 8-Cyclopentyl-2,6-diphenyl-1-deazapurine], for which the Ki in data set [1] is 0.62 ± 0.3 nM.

Consider `c1ccc(-c2cc(-c3ccccc3)c3[nH]c(C4CCCCC4)nc3n2)cc1` [Compound 12, 2,6-Diphenyl-8-cyclohexyl-1-deazapurine], for which the Ki in data set [1] was 0.9 ± 0.21 nM.

Broadly, the Ki is the dissociation constant of the complex between target and ligand, obtained from inhibition or displacement. By melting point is commonly meant the temperature, or range, at which the solid turns liquid.
